Assay: gradient 5% acetonitrile 3 min, to 50% in 2 min, to 85% in 15 min, held 3 min, 100 µL/min
Conditions: column: Zorbax Extend-C18 2.1 x 50 mm; eluents: water / acetonitrile, 0.1% formic acid
How it was run: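 Pure standards were run in mixtures of ~100 molecules by HPLC coupled to a quadrupole time-of-flight mass spectrometer. The column was a Zorbax Extend-C18 (2.1 × 50 mm, 1.8 μm) at 100 μL/min, with water and acetonitrile each containing 0.1% formic acid, in positive and negative ionization mode. Dead and dwell volumes were 40 μL and 900 μL. Retention time was taken from computationally picked adduct peaks, each manually inspected, with data collected over 3 months.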

Compound: O=C(CCCS(=O)(=O)Cc1ccccc1)Nc1nc2c(s1)Cc1ccccc1-2
- RP-LC retention time: 841 s

Compound: N#Cc1cccc(NC(=O)c2cccn2Cc2noc(-c3ccccc3)n2)c1
- RP-LC retention time: 1040 s

Compound: CC1=C(c2ccccc2)S(=O)(=O)N=C1N1CCC(NC(=O)C2CCC2)CC1
- RP-LC retention time: 753 s

Compound: CC1=CC(=O)C2=C(C)C[C@H](O)[C@H]3[C@H](C)C(=O)O[C@@H]3C12 (some centres not stated)
- RP-LC retention time: 725 s

Compound: Cc1ccc(C)c(CSc2nnc3c(S(=O)(=O)N4CCCC4)cccn23)c1
- RP-LC retention time: 893 s

Compound: Cc1c(C(=O)C(=O)Nc2ccc(F)cc2)c2ccccc2n1C
- RP-LC retention time: 921 s

Compound: O=c1ccc(N2CCC(NS(=O)(=O)c3cccc(F)c3)C2)nn1CC1CC1 (configuration not stated)
- RP-LC retention time: 773 s

Compound: COC(=O)c1ccc(CN2CCN(c3cnn4c(C5CC5)nnc4c3)CC2)cc1
- RP-LC retention time: 571 s

Compound: Cc1nnsc1C(=O)OCc1cc(-c2ccco2)on1
- RP-LC retention time: 850 s

Compound: CC1=CC(=C2C=CC(=O)C=C2)C=C(C)N1C
- RP-LC retention time: 620 s

Compound: CCOC(=O)CC(NC(=O)N1CCC2(CC1)NC(=O)c1ccccc1O2)c1ccccc1 (configuration not stated)
- RP-LC retention time: 782 s

Compound: O=C(Cn1cncn1)N1CCC(c2nnc(C(F)(F)F)o2)CC1
- RP-LC retention time: 588 s

Compound: CCc1cc(C2CCCN2Cc2ccc(OCC(N)=O)c(OC)c2)on1 (configuration not stated)
- RP-LC retention time: 570 s

Compound: O=S(=O)(c1ccc2c(c1)-c1oncc1CO2)N1CCCc2ccccc21
- RP-LC retention time: 1020 s

Compound: CCn1cc(-c2ccc(F)cc2)cc1C(=O)N1CCC(C)CC1
- RP-LC retention time: 1150 s

Compound: CCOc1ccc(-c2noc(C3CC(=O)N(c4ccc(C)cc4)C3)n2)cc1 (configuration not stated)
- RP-LC retention time: 1080 s

Compound: CCC(C)NC(=O)c1cn(-c2cc(-c3nc(C(C)C)no3)ccn2)cn1 (configuration not stated)
- RP-LC retention time: 907 s

Compound: CC1CCc2c(sc3nc(CCC(=O)NCCc4c[nH]c5ccccc45)[nH]c(=O)c23)C1 (configuration not stated)
- RP-LC retention time: 898 s

Compound: CCC(C(=O)NCCCN1CCCC1=O)n1c2ccccc2c2cnn(C)c(=O)c21 (configuration not stated)
- RP-LC retention time: 692 s

Compound: Cc1ccc(C)c(Cn2nc(-c3nc(C(C)(C)C)no3)ccc2=O)c1
- RP-LC retention time: 1170 s

Compound: CCC(=O)N1CCc2cc(-c3ccc(C(=O)NC(C)C(=O)N4CCCCC4)cc3)ccc21 (configuration not stated)
- RP-LC retention time: 846 s

Compound: O=C(CCC1CCN(c2cc(NC3CC3)ncn2)CC1)NCc1cccs1
- RP-LC retention time: 633 s

Compound: O=C(Nc1ccc2ncnc(N3CCCC3)c2c1)c1cncc(Br)c1
- RP-LC retention time: 639 s

Compound: COC(=O)c1c(C)[nH]c(C(=O)N2CCC(CC(=O)NCc3ccc4c(c3)OCO4)CC2)c1C
- RP-LC retention time: 770 s

Compound: Cc1ccc2nc(CCNC(=O)Cn3nc(C(=O)N4CCCC4)c4ccccc43)[nH]c2c1
- RP-LC retention time: 613 s

Compound: CN1C(=O)c2ccccc2C(C(=O)N2CCN(c3ccccn3)CC2)C1c1cccs1 (configuration not stated)
- RP-LC retention time: 608 s

Compound: COc1cccc(-c2ccnc3nc(-c4cccs4)nn23)c1
- RP-LC retention time: 906 s

Compound: Clc1ccc(Nc2nc3ccccc3c3nc(C4CCCCC4)[nH]c23)cc1Cl
- RP-LC retention time: 1130 s

Compound: CCc1ccc(S(=O)(=O)c2cnc(N3CCN(c4ccccn4)CC3)nc2N)cc1
- RP-LC retention time: 680 s

Compound: OCC(O)C1OCOC(C(O)CO)C1O (configuration not stated)
- RP-LC retention time: 719 s

Compound: COc1cc(-c2ccc(Cl)cc2)nc2ccc(NC(=O)c3cccs3)cc12
- RP-LC retention time: 814 s

Compound: c1ccc(-n2nnnc2N2CCN(c3ccccn3)CC2)cc1
- RP-LC retention time: 571 s

Compound: CCOCc1nc(C2CCCN(C(=O)NC3CCCCC3)C2)no1 (configuration not stated)
- RP-LC retention time: 804 s

Compound: CCn1cc(-c2ccccc2)cc1C(=O)NC1CCCC1
- RP-LC retention time: 1080 s

Compound: Cc1noc(C)c1CCNC(=O)CN1C(=O)C2CCCCN2c2ccc(S(=O)(=O)N(C)C)cc21 (configuration not stated)
- RP-LC retention time: 796 s

Compound: CCC1CCCCN1C(=O)c1cnc2nc(C)ccc2c1Nc1ccccc1 (configuration not stated)
- RP-LC retention time: 650 s

Compound: Cc1cc(C)cc(NC(=O)C2CCCN2S(=O)(=O)c2ccc3c(c2)CCCC(=O)N3)c1 (configuration not stated)
- RP-LC retention time: 835 s

Compound: Cc1nc2ccccc2nc1N1CCCC1
- RP-LC retention time: 680 s

Compound: COc1ccc(NC(=O)c2c(O)c3sccc3n(C)c2=O)cc1Cl
- RP-LC retention time: 1170 s

Compound: CCn1ccc(C(=O)N2CCC(Cc3nc4cccnc4n3CC(C)C)C2)n1 (configuration not stated)
- RP-LC retention time: 619 s

Compound: O=C(c1cccs1)N1CC(Oc2cccc(-c3nc(-c4ccccc4)no3)c2)C1
- RP-LC retention time: 1180 s

Compound: COC(=O)C1=C(C)NC(=O)NC1c1cn(-c2ccccc2)nc1-c1ccc(F)cc1 (configuration not stated)
- RP-LC retention time: 857 s

Compound: CCCNc1cc(N2CCC(CCC(=O)NCc3c(C)nn(C)c3C)CC2)ncn1
- RP-LC retention time: 594 s

Compound: CCCNC(=O)c1cnn(-c2cc(-c3nc(C)no3)ccn2)c1C
- RP-LC retention time: 772 s

Compound: CCc1nn2c(CNC(=O)c3ccc(C(F)(F)F)cc3)c(-c3ccccc3)nc2s1
- RP-LC retention time: 1020 s

Compound: CCn1cc(-c2nc(CC(=O)NC3CCCC3)cs2)c2cccnc21
- RP-LC retention time: 848 s

Compound: CCn1ncn2cc(S(=O)(=O)Nc3ccc(C)c(C)c3)cc2c1=O
- RP-LC retention time: 930 s

Compound: COc1cc(CCc2cc(NC(=O)c3ccc(N4C[C@@H](C)N[C@@H](C)C4)cc3)n[nH]2)cc(OC)c1
- RP-LC retention time: 687 s

Compound: Cn1ccnc1C(=O)N1CC(n2cc(C(=O)N3CCOCC3)nn2)C1
- RP-LC retention time: 581 s

Compound: CCOc1ccccc1CN1C[C@@H]2C(=O)N(Cc3ccc4c(c3)OCO4)C(=O)[C@@H]2C1
- RP-LC retention time: 727 s

Compound: Cc1ccc(-n2nc3c(N4CCCC(C(=O)NCc5ccc(F)cc5)C4)nnc(C)c3c2C)cc1 (configuration not stated)
- RP-LC retention time: 761 s

Compound: NC(=O)c1cccc(Nc2c(-c3ccc(Cl)cc3)nc3cnccn23)c1
- RP-LC retention time: 685 s

Compound: Cc1ccc2nc3sc(C(=O)Nc4c(C)n(C)n(-c5ccccc5)c4=O)cc3c(=O)n2c1
- RP-LC retention time: 635 s

Compound: COc1ccc(-c2nnc(CC(=O)N3CCOCC3)o2)cc1
- RP-LC retention time: 647 s

Compound: O=C(c1ccccc1Cl)N1CCC(Cc2nnc(-c3ccccc3)o2)CC1
- RP-LC retention time: 864 s

Compound: CC(C)c1ccc(-c2nc(-c3ccc4c(c3)oc(=O)n4C)no2)cc1
- RP-LC retention time: 1250 s

Compound: COc1cc(C2CC(=O)N(CC(=O)N3CCCC3)c3ccccc3S2)cc(OC)c1OC (configuration not stated)
- RP-LC retention time: 792 s

Compound: O=C(NC1CCN(c2cc(-c3ccc(F)cc3)[nH]n2)C1)c1ccccc1Br (configuration not stated)
- RP-LC retention time: 668 s

Compound: O=C(COc1cccc(C(F)(F)F)c1)NCCCn1nc(-c2ccncc2)ccc1=O
- RP-LC retention time: 601 s

Compound: COc1cc(OC)cc(C(=O)N2CCC3(CC2)NC(=O)c2ccc(Cl)cc2N3)c1
- RP-LC retention time: 742 s

Compound: COCCN(CC1(C)CCOCC1)C(=O)NCc1ccc(F)cc1
- RP-LC retention time: 752 s

Compound: CCOc1ccc(S(=O)(=O)N2CCC[C@@H]2C(=O)NCc2csc(C)n2)cc1
- RP-LC retention time: 743 s

Compound: CCc1ccc(-c2csc(Nc3ccc(S(=O)(=O)Nc4cc(OC)nc(OC)n4)cc3)n2)cc1
- RP-LC retention time: 1150 s

Compound: Cn1cc(C(=O)NC2CCCCC2)c2cccnc21
- RP-LC retention time: 726 s

Compound: COc1ccc(NC(=O)C2CCCN(c3nc4c(s3)c(C)nn4-c3ccccc3)C2)c(OC)c1 (configuration not stated)
- RP-LC retention time: 1160 s

Compound: COc1cccc(C(=O)N2CCC3(CC2)NCc2ccccc2-n2ccnc23)c1
- RP-LC retention time: 606 s

Compound: CCn1cc(-c2nc(CC(=O)Nc3ccc(F)cc3)cs2)c2cccnc21
- RP-LC retention time: 894 s

From the METLIN SMRT retention time set (Domingo-Almenara et al. 2019)
